Data taken from patent US9999601B2, “Composition and method for inhibition of nerve transmission” (NEUROQUEST INC., priority 2007, dated 2018).
“Also recorded” adds a separate entry of the source.

Columns and labels:
[1] = molecular target: delayed rectifier current (Ikv), specifically Ikv 1.5 subtype (Homo sapiens, UniProt P22460); test: Whole cell patch clamp recordings (K+ channels); format: cell-based; conditions: for inhibition of delayed rectifying potassium channels (in words): 10 ppm (10 mcmol or 10 ppm); for percent inhibition of the delayed rectifier potassium current: at a concentration of Geranium oil that gave 40% inhibition; for inhibition of delayed rectifying potassium channels, comparison in words: concentration not given
Sequence of delayed rectifier current (Ikv), specifically Ikv 1.5 subtype (P22460 whole entry): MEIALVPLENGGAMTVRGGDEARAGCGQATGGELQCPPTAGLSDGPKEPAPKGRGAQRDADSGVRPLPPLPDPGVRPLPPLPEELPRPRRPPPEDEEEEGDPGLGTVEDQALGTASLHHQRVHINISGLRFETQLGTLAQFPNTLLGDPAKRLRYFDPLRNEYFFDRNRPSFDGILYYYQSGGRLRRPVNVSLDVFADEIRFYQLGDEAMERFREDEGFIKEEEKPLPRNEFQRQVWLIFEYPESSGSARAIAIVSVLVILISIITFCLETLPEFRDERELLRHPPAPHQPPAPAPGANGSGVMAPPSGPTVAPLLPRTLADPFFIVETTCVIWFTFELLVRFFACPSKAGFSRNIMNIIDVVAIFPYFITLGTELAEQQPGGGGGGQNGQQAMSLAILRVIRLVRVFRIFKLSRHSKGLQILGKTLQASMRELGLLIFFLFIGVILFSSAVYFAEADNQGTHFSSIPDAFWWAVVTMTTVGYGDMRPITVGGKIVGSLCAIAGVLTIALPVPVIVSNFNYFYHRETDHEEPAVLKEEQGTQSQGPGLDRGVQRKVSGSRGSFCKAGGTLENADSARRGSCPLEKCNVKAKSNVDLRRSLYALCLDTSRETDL
Procedure: Whole cell patch clamp recordings (Axopatch 200B) were made using borosilicate patch pipettes of resistance 3-8 MΩ with an intracellular solution utilizing potassium chloride as the current carrier. Current clamp recording were conducted holding the membrane potential at −60 mV to characterize the firing property of the cells. Voltage clamp was performed to investigate the delayed rectifier current (Ikv), specifically Ikv 1.5 subtype. Statistical significance was assessed using ANOVA followed by Duncan's multiple-range test with P<0.05 taken as indicating significance. […] A synthetic blend of geranium oil containing proportions of geraniol and citronellol similar to natural geranium oil, but with other components removed, was compared to the following ratios of geraniol:citronellol; 2:8, 3:7, 4:6 and geranium oil. The synthetic blend of geranium oil gave a 50% inhibition of the delayed rectifying potassium channel current compared to a 40% inhibition for natural geranium oil.

[2] = test system: mouse hippocampal brain slice neurons (cortical neuron); test: Patch clamp electrophysiological studies of mouse hippocampal slices; format: cell-based; conditions: for inhibition of nerve transmission (in words): animal cortical nerve cells and dorsal root ganglion cells; for membrane currents, current-voltage relation (in words): bath-applied, 10 mV steps from −110 to −20 mV, FIG. 1, FIG. 2A-C
Procedure: Studies were conducted on mouse hippocampal brain slice preparations. In terms of the slice preparations, […] coronal brain slices were prepared from animals housed in a 12 hour light (ZT 0-12):12 hour dark (ZT 12-24) environment. Animals were anesthetized with isoflurane, decapitated, the brain rapidly removed and placed in ice cold, oxygenated (95% 02:5% C02), bicarbonate-buffered artificial cerebral spinal fluid (ACSF). A 1 cm^2 block of brain tissue containing the hippocampi was glued to a cutting surface and coronal slices were prepared using a Leica VT1000S microtome (Leica Microsystems). All slices were left to equilibrate for approximately one hour prior to the transfer to a recording chamber. Once transferred to the chamber, slices were continuously superfused with oxygenated ACSF at a rate of 3 ml/min @30° C. and recordings are generally made for the next 6-12 hours. Patch microelectrodes (5-8MΩ) made from borosilicate glass (Garner Glass Co.) and filled with K^+based internal patch solution composed of: (in mM) 120 K-acetate, 40 HEPES, 10 EGTA, 6 MgCl2, nystatin (450 μg/ml) or gramicidin B (5 μg/ml) and pluronic acid F127.
The perforated patch recording technique and will be used (Korn & Horn, 1989) and viable Hippocampal neurons were visually targeted using Infrared Differential Interference Contrast (IR-DIC) microscopy using a Leica DM LFSA scope. […] Recordings were made from 3 different patch rigs equipped with either […] patch clamp amplifiers interfaced via a Digidata 1322A to a PC computer or on, in terms of the studies performed on dissociated DRG neurons, a Zeiss Axoscop 200 inverted microscope equipped with an Axopatch 200B/Digidata 1322A using Pclamp 9.0 and Axoscope 9 software.
Test compounds were bath-applied by superfusion to examine for changes in excitability and/or attenuation of ion channels and the effects of compounds on evoked synaptic responses. Stimulating electrodes (concentric or bipolar) were placed within the slices and in accordance with the well known fiber tract pathways of passage for the
Superimposed responses to a series of 10 mV steps (250 ms) ranged from −110 to −20 mV are shown, (A) in control condition, (B) in presence of geraniol, and (C) after washout of the drug.
Typical response of a cortical neuron following a depolarizing current pulse of 0.4 nA is shown in FIGS. 2D, 2E and 2F, (D) in control condition, (E) in presence of geraniol, and (F) after recovery.
Mean current-voltage plots for 6 cortical neurons are plotted in FIG. 1.
Samples 1, 2 and 6 are examples of naturally-derived geranium oils; sample 3 is the synthetic composition as set out in Table 1, sample 4 is pure geraniol, sample 5 is pure citronellol and sample 4+5 is 50:50 (by volume) combination of geraniol and citronellol. Net current represents the difference between current measured in control condition and in presence of tested compound, in response to the same voltage step.

post herpetic neuralgia = test: Case study, post herpetic neuralgia, topical pure geraniol; format: in vivo, human; conditions: over 30 minutes after topical application; one subject
From the text: person, Ht 68 inches, Weight 162 lb. BMI 24.7. History of shingles 4 years prior to study with residual pain (post herpetic neuralgia). The subject tried Neurontin™ (Pfizer, U.S.) for 1 week with only some help and quit 3-4 years prior to this study.
They had moderate pain that made it hard to concentrate on things other than the pain. […] They could sleep, but had to keep changing positions to do so. They described the post-herpetic neuralgia as the worst thing to have happened to […]. The subject's pain decreased by 78% with pure geraniol over the course of 30 minutes after topical application as measured on a standard visual analog scale.

post-herpetic neuralgia = test: Human screening of synthetic geranium oil and geraniol in neuropathic pain (post-herpetic neuralgia); format: in vivo; conditions: topical pure geraniol, human neuropathic pain sufferers
Procedure: A synthetic blend of geranium oil (Table 1) was also tested in a panel of human neuropathic pain sufferers known to respond to naturally derived geranium oil. The geranium oil was topically applied in therapeutically effective amounts to areas of the human body affected with symptoms of neuropathic pain. Dosage amounts depended on the size of the patient's affected areas. […] Once administered, a typical positive response is a significant reduction in pain, often in minutes. A significant number of patients in the panel of neuropathic pain sufferers preferred the pain relieving effects of the synthetic blend of geranium oil, with known purified constituents, over the natural geranium oil.
Since natural geranium oil relieves neuropathic pain and inhibits the delayed rectifying potassium channel, and since synthetic geranium oil, geraniol, and citronellol all inhibit the delayed rectifying potassium channel, synthetic geranium oil and geraniol were tested on patients with post-herpetic neuralgia. A synthetic blend of geranium oil was tested in patients with post-herpetic neuralgia that were positive responders to natural geranium oil. […] Pure geraniol was then tested in these subjects.

SMILES	inhibition of delayed rectifying potassium channels (in words) [1]	percent inhibition of the delayed rectifier potassium current [1] [%]	inhibition of nerve transmission (in words) [2]	inhibition of delayed rectifying potassium channels, comparison in words [1]	other results
C=C(C)C1CC=C(C)C(=O)C1 (centres unmarked) [carvone, Carvone]	positive	22			
C=CC(C)(O)CCC=C(C)C (centres unmarked) [linalool, Linalool]	positive	18			

Further lines, with some results ahead:

inhibition of delayed rectifying potassium channels (in words) [1]	percent inhibition of the delayed rectifier potassium current [1] [%]	SMILES	inhibition of nerve transmission (in words) [2]	inhibition of delayed rectifying potassium channels, comparison in words [1]	other results
positive	27	CC(C)=CCCC(C)CCO (centres unmarked) [citronellol, 3,7-dimethyloct-6-en-1-ol]	effectively inhibit nerve transmission	highest amount of inhibition; also recorded: highest activity	
positive	26	CC(C)=CCC/C(C)=C/CO [geraniol, 2,6-Octadien-1-ol, 3,7-dimethyl-, (2E)-]	effectively inhibit nerve transmission	highest amount of inhibition; also recorded: highest activity	membrane currents, current-voltage relation (in words) [2]: reduction in the membrane current amplitude; also recorded: reduction of membrane currents; membrane currents, current-voltage relation (in words) ([2]; listed as geraniol (test compound #4)): reduction of membrane currents; membrane currents, current-voltage relation (in words) ([2]; listed as sample #4 (Geraniol)): reduction of membrane currents; net current reduction, rank among tested samples ([2]; most negative voltage step (−110 mV), FIG. 3): greatest inhibition; action potentials (in words) ([2]; voltage steps or depolarizing current pulse of 0.4 nA, FIG. 2): inhibition of action potential; decrease of pain on visual analog scale (post herpetic neuralgia): 78%; neuropathic pain relief (in words) (post-herpetic neuralgia): almost immediate pain relief; also recorded: greatest effect on neuropathic pain relief
positive	22	CC(C)[C@@H]1CC[C@@H](C)CC1=O [menthone, Menthone]			
positive	14	CC(C)=CC1CC(C)CCO1 (centres unmarked) [rose oxide, Rose Oxide]			
